Reference: ChEMBL document CHEMBL3297647, “Biological evaluation of subglutinol a as a novel immunosuppressive agent for inflammation intervention” (ACS Med Chem Lett, 2014)
Activity calls are given as the source filed them. The calls are words filed in the database; no cut-off is given here.

Experiments:
[1] = tested on: T-cell; assay: Induction of apoptosis in LLO118 TCR transgenic mouse LLO (190 to 205)-activated CD4-positive T cells assessed as dead undivided cells at 100 nM after 48 hrs by CFSE dilution/flow cytometric analysis (reference value: 14.7%); assay type: functional
[2] = tested on: T-cell; assay: Induction of apoptosis in pMel-1 TCR transgenic C57BL/6 mouse gp100 (25 to 33)-activated CD8-positive T cells assessed as live divided cells at 100 nM after 48 hrs by CFSE dilution/flow cytometric analysis (reference value: 55.2%); assay type: functional
[3] = tested on: Lymphocyte; assay: Immunosuppressive activity in lymphocytes by MLR assay; assay type: functional, cell-based
[4] = tested on: T-cell; assay: Induction of apoptosis in pMel-1 TCR transgenic C57BL/6 mouse gp100 (25 to 33)-activated CD8-positive T cells assessed as dead divided cells at 100 nM after 48 hrs by CFSE dilution/flow cytometric analysis (reference value: 14.7%); assay type: functional
[5] = tested on: T-cell; assay: Induction of apoptosis in LLO118 TCR transgenic mouse LLO (190 to 205)-activated CD4-positive T cells assessed as live divided cells at 100 nM after 48 hrs by CFSE dilution/flow cytometric analysis (reference value: 40.6%); assay type: functional
[6] = tested on: T-cell; assay: Induction of apoptosis in LLO118 TCR transgenic mouse LLO (190 to 205)-activated CD4-positive T cells assessed as dead divided cells at 100 nM after 48 hrs by CFSE dilution/flow cytometric analysis (reference value: 3.04%); assay type: functional
[7] = tested on: T-cell; assay: Induction of apoptosis in LLO118 TCR transgenic mouse LLO (190 to 205)-activated CD4-positive T cells assessed as live undivided cells at 100 nM after 48 hrs by CFSE dilution/flow cytometric analysis (reference value: 41.6%); assay type: functional
[8] = tested on: T-cell; assay: Induction of apoptosis in pMel-1 TCR transgenic C57BL/6 mouse gp100 (25 to 33)-activated CD8-positive T cells assessed as live undivided cells at 100 nM after 48 hrs by CFSE dilution/flow cytometric analysis (reference value: 23.4%); assay type: functional
[9] = tested on: T-cell; assay: Induction of apoptosis in pMel-1 TCR transgenic C57BL/6 mouse gp100 (25 to 33)-activated CD8-positive T cells assessed as dead undivided cells at 100 nM after 48 hrs by CFSE dilution/flow cytometric analysis (reference value: 6.77%); assay type: functional
[10] = tested on: BMDC; assay: Induction of mitochondrial depolarization in B6 mouse immature BMDC at 100 nM for 1 day by MitoTracker Orange CMTMRos staining-based flow cytometric analysis; assay type: functional
[11] = Antiinflammatory activity in LLO118 TCR transgenic mouse IL-2-competent CD4-positive T cells assessed as inhibition of LLO (190 to 205)-induced IL-2 production at 1 nM for 2 days by flow cytometric analysis relative to control; assay type: functional; conditions: T-cell, 48 h
[12] = tested on: Th17; assay: Reduction in mitochondrial mass in LLO118 TCR transgenic mouse Th17 cells at 50 to 100 nM for 2 days by MitoTracker Deep Red FM staining-based flow cytometric analysis; assay type: functional, cell-based
[13] = tested on: BMDC; assay: Reduction in mitochondrial mass in LPS-matured B6 mouse BMDC at 100 nM for 1 day by MitoTracker Deep Red FM staining-based flow cytometric analysis; assay type: functional
[14] = tested on: Mus musculus; assay: Immunosuppressive activity in C57BL/6J mouse KLH-induced delayed-type hypersensitivity model assessed as amelioration of tissue injury at 16 nmol administered on day 7 and 8 post-sensitization measured on day 9; assay type: functional, organism-based
[15] = tested on: T-cell; assay: Antiinflammatory activity in LLO118 TCR transgenic mouse IL-2-competent CD4-positive T cells assessed as inhibition of LLO (190 to 205)-induced IL-2 production at 100 nM for 2 days by flow cytometric analysis; assay type: functional, cell-based
[16] = tested on: BMDC; assay: Reduction in mitochondrial mass in B6 mouse immature BMDC at 100 nM for 1 day by MitoTracker Deep Red FM staining-based flow cytometric analysis; assay type: functional
[17] = tested on: Mus musculus; assay: Immunosuppressive activity in C57BL/6J mouse KLH-induced delayed-type hypersensitivity model assessed as blockade of lymphocyte accumulation at 16 nmol administered on day 7 and 8 post-sensitization measured on day 9; assay type: functional, organism-based
[18] = tested on: Mus musculus; assay: Immunosuppressive activity in C57BL/6J mouse KLH-induced delayed-type hypersensitivity model assessed as alleviation of footpad swelling at 16 nmol administered on day 7 and 8 post-sensitization measured on day 9; assay type: functional, organism-based
[19] = Antiinflammatory activity in LLO118 TCR transgenic mouse Th1 cells assessed as inhibition of IFN-gamma production at 10 nM for 2 days by flow cytometric analysis (reference value: 90%); assay type: functional; parameters: scale not given: the % may be the effect or the level left
[20] = tested on: Th1; assay: Induction of mitochondrial depolarization in LLO118 TCR transgenic mouse Th1 cells treated for 2 days by MitoTracker Orange CMTMRos staining-based flow cytometric analysis; assay type: functional, cell-based
[21] = Immunosuppressive activity in C57Bl/6 mouse lymphocytes assessed as inhibition of cell proliferation co-incubated with BALB/c mouse stimulator lymphocytes after 72 hrs by [3H]-thymidine incorporation assay; assay type: functional, cell-based; conditions: C57Bl/6, Lymphocyte
[22] = tested on: Th17; assay: Antiinflammatory activity in LLO118 TCR transgenic mouse Th17 cells assessed as inhibition of IL-17 production at 10 to 100 nM for 2 days by flow cytometric analysis; assay type: functional, cell-based
[23] = tested on: BMDC; assay: Induction of mitochondrial depolarization in LPS-matured B6 mouse BMDC at 100 nM for 1 day by MitoTracker Orange CMTMRos staining-based flow cytometric analysis; assay type: functional
[24] = tested on: Th1; assay: Reduction in mitochondrial mass in LLO118 TCR transgenic mouse Th1 cells at 50 to 100 nM for 2 days by MitoTracker Deep Red FM staining-based flow cytometric analysis; assay type: functional, cell-based
[25] = tested on: Th17; assay: Induction of mitochondrial depolarization in LLO118 TCR transgenic mouse Th17 cells treated for 2 days by MitoTracker Orange CMTMRos staining-based flow cytometric analysis; assay type: functional, cell-based

| Structure (SMILES) | Activity [1] | Activity [2] | IC50 [3] | Activity [4] | Activity [5] | Activity [6] | Activity [7] | Activity [8] | Activity [9] | IC50 [21] | also measured |
| --- | --- | --- | --- | --- | --- | --- | --- | --- | --- | --- | --- |
| C/C=C/C[C@@H](C)[C@@H](O)[C@H]1C(=O)N[C@@H](CC)C(=O)N(C)CC(=O)N(C)[C@@H](CC(C)C)C(=O)N[C@@H](C(C)C)C(=O)N(C)[C@@H](CC(C)C)C(=O)N[C@@H](C)C(=O)N[C@H](C)C(=O)N(C)[C@@H](CC(C)C)C(=O)N(C)[C@@H](CC(C)C)C(=O)N(C)[C@@H](C(C)C)C(=O)N1C [CYCLOSPORINE] | 86.1% | 0.68% | 89 nM | 10.8% | 1.02% | 10.9% | 1.94% | 2.01% | 86.5% |  |  |
| C=C1CC[C@H]2[C@]3(C)C[C@@H](C=C(C)C)O[C@H]3CC[C@]2(C)[C@@H]1Cc1c(O)c(C)c(C)oc1=O [SUBGLUTINOL A] | 82.6% | 1.04% | 25 nM | 3.09% | 0.73% | 3.29% | 13.4% | 12.3% | 83.6% | 100 nM | Activity [10]: inactive; inhibition at 0.001 µM [11]: 50%; Activity [12]: inactive; Activity [13]: inactive; Activity [14]: Active; inhibition [15]: Active; Activity [16]: inactive; Activity [17]: Active; Activity [18]: Active; Activity [19]: <1%; Activity [20]: Dose-dependent effect; inhibition [22]: Active; Activity [23]: inactive; Activity [24]: Active; Activity [25]: Dose-dependent effect |
| C=C1CC[C@H]2[C@]3(C)C[C@H](C=C(C)C)O[C@H]3CC[C@]2(C)[C@@H]1Cc1c(O)c(C)c(C)oc1=O [SUBGLUTINOL B] |  |  |  |  |  |  |  |  |  | 100 nM |  |
